Measurements taken from patent US6852726B2, “Substituted indoles as alpha-1 agonists” (Syntex LLC, priority 2002, dated 2005).

Legend:
[1] = molecular target: T1, alpha-1A adrenoceptors expressed in CHO-K1 cells (clone 13) (Homo sapiens, UniProt P35348); assay: Functional assay for alpha-1A/L agonist activity (FLIPR, Fluo-3 intracellular calcium); type: cell-based; settings: for IA (intrinsic activity): maximum response relative to full agonist norepinephrine bitartrate, CHO-K1 alpha-1A cells
T1 construct: expressed in transfected cells; host or cells: CHO-K1 (clone 13)
T1 sequence (P35348 1-466): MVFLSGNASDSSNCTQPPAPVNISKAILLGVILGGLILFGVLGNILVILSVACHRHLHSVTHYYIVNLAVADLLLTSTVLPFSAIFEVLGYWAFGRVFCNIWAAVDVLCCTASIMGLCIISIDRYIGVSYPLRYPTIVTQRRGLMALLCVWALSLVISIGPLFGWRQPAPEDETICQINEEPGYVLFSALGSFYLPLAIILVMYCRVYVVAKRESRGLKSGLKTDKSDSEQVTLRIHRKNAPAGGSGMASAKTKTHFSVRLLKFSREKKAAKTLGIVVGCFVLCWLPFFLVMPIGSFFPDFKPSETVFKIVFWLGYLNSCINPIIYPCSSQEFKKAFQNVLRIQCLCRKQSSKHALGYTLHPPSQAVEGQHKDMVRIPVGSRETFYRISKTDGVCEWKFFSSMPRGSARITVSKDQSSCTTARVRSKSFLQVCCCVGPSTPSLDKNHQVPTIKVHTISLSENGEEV
Excerpt: The inhibitory activity of compounds of this invention in vitro was examined using fluorescent dye determination of intracellular calcium concentrations as described in Example 6.
Functional Assay for Alpha-1A/L Agonist Activity
The inhibitory activity of compounds of this invention in vitro was examined using fluorescent dye determination of intracellular calcium concentrations.
Chinese hamster ovary cells CHO-K1 expressing the alpha-1A adrenoceptors (clone 13) are washed 4 times (approx. 300 μL/well) with fluorometric imaging plate reader (FLIPR) buffer (Hank's buffered saline solution (HBSS), 2 mM CaCl2, 10 mM HEPES, 2,5 mM probenecid, 100 μM ascorbic acid), with a final volume of 150 μL/well. Cells are loaded with 50 μL/well of 8 μM Fluo-3 AM (Molecular Probes, Eugene, Oreg.), for a final concentration of 2 μM Fluo-3 AM. Cells are then incubated for 60 min at 37° C. Following dye loading, cells are washed 4 times (approx. 300 μL/well) with FLIPR buffer with a final volume of 150 μL/well.
The Test compound, control compound and reference compound are run in quadruplicate, 8-point curves on each plate with a final assay concentration range of 10^−4M to 10^−11M for each compound. All compounds are dissolved in DMSO at 10 mM, and serially diluted in FLIPR buffer.
The assay plate is placed in the FLIPR incubation chamber and a baseline fluorescence measurement (excitation @ 488 nm and emission @ 510-570 nm) is obtained (15 sec interval). An experimental run is then commenced. The reaction is started with the addition of 50 μL/well (at 4× final concentration) of test, control, or reference compound solution from the agonist plate to the assay plate to all 96 wells simultaneously. Fluorescence is measured for 120 sec at 1 sec intervals. Then, a second addition of 5 μM ionomycin (50 μL/well from 5× concentration ionomycin plate) is added to the assay plate. Fluorescence is measured for 30 sec at 1 sec intervals. All experiments are conducted at room temperature.
For each assay plate, responses (increase in peak fluorescence) in each well following addition of agonist (test, control and reference) are determined. These responses may be expressed as raw CFU (Corrected Fluorescence Units), as a % maximum ionomycin response or other unit as determined by the investigator.
For test compound, control compound (Noerepinephrine (NE) bitartrate), and reference compound, the concentration producing a 50% increase in control response (EC50) is determined using iterative curve-fitting methods. Excel spreadsheet or Kaleidagraph software are used to fit data to the general logistic function (E=B+Emax·A^nH/A^nH+EC50^nH), where B is the corrected baseline fluorescence units (defined as zero), A is the concentration of agonist added and nH is the Hill slope (constrained to unity). EC50 values and maxima (Emax) for each curve can be estimated objectively using this software.
In addition the intrinsic activity (α) is determined. Intrinsic activity is defined as the maximum response to test agonist divided by the maximum response to a full agonist acting through the same receptor. For these experiments, the full agonist is defined as Norepinephrine (NE) bitartrate (control).

[2] = CHO-K1 cells expressing alpha-1A adrenoceptors, FLIPR calcium fluorescence, room temperature

Row | Compound | EC50 [1, 2] [nM] | IA (intrinsic activity) [1] | pEC50 [1, 2] | melting point [°C]
1 | COc1ccc2c(S(C)(=O)=O)c(C)n(CC3=NCCN3)c2c1 [1-(4,5-Dihydro-1H-imidazol-2-ylmethyl)-3-methanesulfonyl-6-methoxy-2-methyl-1H-indole] | 10 | 1.05 | – | –
2 | CS(=O)(=O)c1cn(CC2=NCCN2)c2ccccc12 [1-(4,5-Dihydro-1H-imidazol-2-ylmethyl)-3-methanesulfonyl-1H-indole] | 2.29 | 1.07 | – | –
3 | Cc1c(S(C)(=O)=O)c2c(S(C)(=O)=O)cccc2n1CC1=NCCN1 [1-(4,5-Dihydro-1H-imidazol-2-ylmethyl)-3,4-bis-methanesulfonyl-2-methyl-1H-indole] | 1050 | 1.04 | – | –
4 | CN(C)S(=O)(=O)c1cn(CC2=NCCN2)c2cc(Cl)ccc12 [6-Chloro-1-(4,5-dihydro-1H-imidazol-2-ylmethyl)-1H-indole-3-sulfonic acid dimethylamide] | 9.12 | 1.00 | – | –
5 | Cc1c(S(C)(=O)=O)c2cccc(C(F)(F)F)c2n1CC1=NCCN1 [1-(4,5-Dihydro-1H-imidazol-2-ylmethyl)-3-methanesulfonyl-2-methyl-7-trifluoromethyl-1H-indole] | 141 | 0.96 | – | –
6 | 6-Bromo-1-(4,5-dihydro-1H-imidazol-2-ylmethyl)-1H-indole-3-carboxylic acid dimethylamide [Example 17] | – | 1.02 | 8.34 | –
7 | Cc1c(S(C)(=O)=O)c2ccc(S(C)(=O)=O)cc2n1CC1=NCCN1 [1-(4,5-Dihydro-1H-imidazol-2-ylmethyl)-3,6-bis-methanesulfonyl-2-methyl-1H-indole] | 60300 | 0.18 | – | –
8 | Cc1c(S(C)(=O)=O)c2cccc(Cl)c2n1CC1=NCCN1 [Example 4, 7-Chloro-1-(4,5-dihydro-1H-imidazol-2-ylmethyl)-3-methanesulfonyl-2-methyl-1H-indole] | – | – | – | 221 to 223
9 | Cc1ccc2c(c1)c(S(C)(=O)=O)c(C)n2CC1=NCCN1.Cl [1-(4,5-Dihydro-1Hmidazol-2-ylmethyl)-3-methanesulfonyl-2,5-dimethyl-1H-indole] | 23.4 | 0.93 | – | –
10 | Cc1c(S(C)(=O)=O)c2ccccc2n1CC1=NCCN1 [1-(4,5-Dihydro-1H-imidazol-2-ylmethyl)-3-methanesulfonyl-2-methyl-1H-indole] | 0.832 | 1.00 | – | –
